This is an account of results in US20150272951A1, “COMPOUNDS FOR THE TREATMENT OF LYSOSOMAL STORAGE DISEASES” (The Hospital for Sick Children, priority 2010, published 2015).

Experiment [1] has as its target Hex A (Homo sapiens, UniProt P06865+P07686). In words: Hex A inhibition (IC50 from dose response curves of Hex A residual activity).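 Further: remaining Hex A enzyme activity recorded across rising inhibitor doses, with dose response curves run at pH 6.5 and again at pH 4.5.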
Description: The NINDS library was screened for compounds having Hex A inhibitory activity.
(§1) Experiments were performed using 1.6 mM 4-methylumbelliferone-b-N-Acetylglucosamine substrate.
For experiment [2], the system named is mutant Hex A. It counts as cell-based, human. As for the experimental part:
The cells were harvested and assayed for Hex A using a fluorescent artificial substrate, MUGS. The increase in Hex A activity relative to that of untreated cells is given, i.e. no change in activity=1;
Cells were grown in the indicated concentrations of either drug for five days. The cells were harvested and assayed for Hex A activity using a fluorescent artificial substrate, MUGS. The increase in Hex A activity relative to that of untreated cells is given, i.e. no change in activity=1.
Two of the other cultures were un-genotyped infantile Tay-Sachs disease fibroblast cell lines. […] The increase in Hex A activity relative to that of untreated cells is given, i.e., no change in activity=1. The decrease in Hex A activity at high concentrations represents cell toxicity.

The target in experiment [3] is T1, purified recombinant human DHFR (Homo sapiens, UniProt P00374).
T1 sequence (P00374 1-187): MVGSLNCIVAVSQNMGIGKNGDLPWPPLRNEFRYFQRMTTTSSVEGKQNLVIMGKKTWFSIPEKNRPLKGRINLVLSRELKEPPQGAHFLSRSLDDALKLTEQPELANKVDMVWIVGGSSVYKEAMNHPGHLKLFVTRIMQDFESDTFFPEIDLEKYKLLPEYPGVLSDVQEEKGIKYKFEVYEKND
In words: DHFR inhibition. It counts as biochemical. The settings on record: FIG. 13B.

Experiment [4] has as its system malaria. Conditions: cited from earlier work.
Experiment [5] relates to lysosomal HexA. In words: Intracellular hydrolysis of fluorescent GM2 ganglioside derivative in patient cells. It counts as cell-based, human. The settings on record: PYRdCl 11 μg/ml vs PYR 33 μg/ml, 10 days. As for the experimental part:
Prior to evaluation of the GM2 hydrolytic activity of lysosomal HexA, cells were treated with Conduritol b-epoxide (Glucocerebrosidase inhibitor) to limit hydrolysis beyond (GlcCer) loaded with a fluorescent derivative of GM2 ganglioside for 8 hrs. Neutral glycolipids and gangliosides were separated by Folch extraction of the treated cells. Gangliosides and glycolipids were resolved by High Performance Thin Layer Chromatography and visualized by Fluorescence Imaging (Storm Imager, Molecular Devices).

Experiment [6] concerns the target mutant Hex A (Homo sapiens, UniProt P06865+P07686). It counts as cell-based. The protocol:
Using the graphs of FIGS. 5-7, the EC50 values for Hex A rescue were determined as well as the maximum increase and range of increase in Hex A activity. These values are tabulated in Table 2, together with the IC50 values for Hex A inhibition that were determined in Example 3.

Experiment [7] deals with HexB (Homo sapiens, UniProt P07686). In words: HexB inhibition (purified isozyme). It counts as biochemical.
Description: as §1
For experiment [8], the target named is T2, HexA wt (Homo sapiens, UniProt P06865+P07686).
T2 construct: endogenous in cells; host or cells: normal fibroblasts (HexA isozyme enriched from them)
In words: Inhibition of HexA enriched from normal fibroblasts. It counts as biochemical. The settings on record: pH 4.5.
Description: as §1

Like-named read-outs stand apart in the source and are kept apart here.

Hex A, sequence (P06865 89-529): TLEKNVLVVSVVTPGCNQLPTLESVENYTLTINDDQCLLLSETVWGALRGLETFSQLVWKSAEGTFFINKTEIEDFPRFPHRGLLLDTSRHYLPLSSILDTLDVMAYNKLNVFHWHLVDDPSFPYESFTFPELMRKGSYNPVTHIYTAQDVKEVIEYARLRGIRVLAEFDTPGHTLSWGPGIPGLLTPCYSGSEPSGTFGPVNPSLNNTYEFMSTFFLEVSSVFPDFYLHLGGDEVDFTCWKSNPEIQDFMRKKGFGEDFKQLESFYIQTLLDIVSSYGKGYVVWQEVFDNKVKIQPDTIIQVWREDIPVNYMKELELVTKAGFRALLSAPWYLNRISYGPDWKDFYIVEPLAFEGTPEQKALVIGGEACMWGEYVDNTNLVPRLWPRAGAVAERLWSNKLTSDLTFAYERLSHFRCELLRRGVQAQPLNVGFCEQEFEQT
Hex A, sequence (P07686 122-311 limits assumed): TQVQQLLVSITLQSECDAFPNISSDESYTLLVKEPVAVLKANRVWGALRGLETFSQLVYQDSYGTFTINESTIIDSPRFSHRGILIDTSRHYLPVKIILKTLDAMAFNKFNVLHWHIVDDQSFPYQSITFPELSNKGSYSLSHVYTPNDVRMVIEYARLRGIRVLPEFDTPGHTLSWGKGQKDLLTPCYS
Hex A, sequence (P07686 315-556 limits assumed): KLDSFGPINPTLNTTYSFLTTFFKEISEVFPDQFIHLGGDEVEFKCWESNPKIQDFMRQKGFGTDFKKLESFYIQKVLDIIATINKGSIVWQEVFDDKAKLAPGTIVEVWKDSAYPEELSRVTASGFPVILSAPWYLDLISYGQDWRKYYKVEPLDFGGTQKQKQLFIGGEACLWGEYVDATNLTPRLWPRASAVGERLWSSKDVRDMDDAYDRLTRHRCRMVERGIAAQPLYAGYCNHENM
HexB, sequence (P07686 122-311 limits assumed): as the sequence (P07686 122-311 limits assumed) above
HexB, sequence (P07686 315-556 limits assumed): as the sequence (P07686 315-556 limits assumed) above
T2 sequence (P06865 89-529): as the sequence (P06865 89-529) above
T2 sequence (P07686 122-311 limits assumed): as the sequence (P07686 122-311 limits assumed) above
T2 sequence (P07686 315-556 limits assumed): as the sequence (P07686 315-556 limits assumed) above

Take `CCc1nc(N)nc(N)c1-c1ccccc1` [ksh3-10]: the IC50 in experiment [1] (read-out: IC50 (μM ± Err), Hex A inhibition, values determined in Example 3, pH not given) was 32 ± 1 µM; in experiment [1] (read-out: IC50 HexA pH 7, purified HexA, pH 7), 11 µM; in experiment [1] (without error, pH not stated) it was 32 µM; in experiment [3] it was 0.2 µM; in experiment [7] (pH 4.5, 1.6 mM substrate, read-out: IC50 HexB pH 4.5), 38 µM; in experiment [7] (pH 7, read-out: IC50 HexB pH 7) it was 15 µM. In experiment [8], this compound showed an IC50 of 27 µM. The “fold increase in Hex A activity” value in experiment [2] (33.33 μg/ml, five days, relative to untreated cells (FIG. 5)) was 7 fold. Besides, in experiment [2] (all Tay-Sachs cell lines tested (FIG. 5)), the “Hex A rescue response compared with PYR” value is given as “as good or a better than PYR”. The “activity against malaria relative to PYR” value in experiment [4] is listed as “inferior activity against malaria relative to PYR”. Also, the “intracellular hydrolysis of fluorescent GM2 ganglioside derivative” value in experiment [5] was “greater intracellular hydrolysis”. In addition, the EC50 in experiment [6] (Hex A rescue, determined from graphs of FIGS. 5-7) was 38.4 µM. Also, the “fold increase in Hex A activity (rescue of mutant Hex A)” value in experiment [6] (concentration of 100 μM (FIGS. 6 and 7)) is reported as around 3 fold. For the same compound, the “Max Increase” value in experiment [6] (maximum increase in Hex A activity relative to untreated cells (=1)) stood at 2.6. In addition, the “Range of Increase” value in experiment [6] (range of increase in Hex A activity) is on record as 4.
